Measured values as given in EP4341264B1, “PYRROLOPIRIMIDINE DERIVATIVES AND THEIR USE IN THE TREATMENT OF LEISHMANIASIS” (Drugs for Neglected Diseases Initiative, priority 2021, dated 2022).
Where two headings read alike, the source gives them in different places.

Columns and labels:
[1] = test system: L. donovani (MHOM/ET/67/L82); assay: Intracellular amastigote susceptibility assay (primary peritoneal mouse macrophages); format: cell-based; settings: Leishmania donovani, Macrophage; L. donovani (MHOM/ET/67/L82) amastigotes in mouse macrophages, 96-h incubation
Protocol: (§1) To obtain primary peritoneal macrophages, Swiss mice were stimulated by intraperitoneal injection of 1 mL 2% starch in PBS 48 h prior to cell collection. Animals were euthanized with a CO2 overdose and upon removal of the skin, 10 mL of RPMI-1640 (Life Technologies) was injected into the peritoneal cavity to collect the macrophages that were then seeded into 96-well plates at a final concentration of 30,000 cells/well in 100 µL of RPMI-1640 macrophage medium, supplemented with 5% iFCS, 2% penicillin/streptomycin and 1% L-glutamine (Life technologies). After 24 h, the cells were infected with spleen derived L. infantum (MHOM/MA(BE)/67/ITMAP263) or L. donovani (MHOM/ET/67/L82) amastigotes obtained from heavily infected donor hamsters. The amastigotes were purified using two centrifugation steps and diluted to obtain an infection ratio of 5:1 in RPMI-1640 cell culture medium. After incubation for 2 h, compound dilutions were added. Drug activity was evaluated after a 96-h incubation period without washing of the cells and without renewal of the drugged culture medium. Cells were stained with Giemsa for microscopic evaluation of cellular amastigote burdens. Percentage reduction compared to the burdens in the infected non-treated control wells was used as a measure for drug activity.

[2] = test system: L. infantum (MHOM/MA/67/ITMAP263); assay: as above; format: cell-based; settings: Leishmania infantum, Macrophage; L. infantum (MHOM/MA/67/ITMAP263) amastigotes in mouse macrophages, 96-h incubation
Protocol: as §1

[3] = test system: L. infantum (MHOM/BR/2007/WC (L3015)); assay: Leishmania clinical isolate panel screen (drug-susceptibility assay in infected macrophages); format: cell-based; settings: Macrophage, read-out: IC50 Mean ± SEM
Protocol: (§2) Female Swiss mice (BW ~20 g) were purchased from a commercial source (Janvier France) and kept in quarantine for 1 week. The animals were housed in group and drinking water was available ad libitum. To harvest peritoneal macrophages, the mice were first stimulated by intraperitoneal injection of 1 mL of starch solution (2% in PBS). After 24 h, macrophages were collected in RPMI-1640 supplemented with 5% iFCS, 2% penicillin-streptomycin and 1% L-glutamine by peritoneal lavage and immediately distributed in a 96-well plate at a concentration of 30,000 cells/well. The cells were incubated for 24 h at 37°C and 5 % CO2 to allow cell attachment.
(§3) Strains of L. donovani, L. infantum, L. major, L. tropica, L. guyanensis and L. panamensis were selected based on their intrinsic susceptibility to the commonly used reference drugs and their geographic distribution. All strains were cultivated in HOMEM promastigote medium and sub-cultured twice weekly. Passage numbers were kept as low as possible to avoid loss of virulence. For infection of the macrophages, metacyclic promastigote cultures were examined light microscopically for the abundant presence of metacyclic promastigotes. Upon counting, promastigotes were centrifuged and diluted in RPMI-1640 to the desired concentration. The infection ratio varied based on the ability of the strain to adequately infect the host cells and ranged from 5 to 20 promastigotes per macrophage. Macrophages were infected by adding 100 µL promastigote suspension per well onto the macrophages. When ex vivo amastigotes were available (only for two lab strains), macrophages were infected at a ratio of 10/1.
(§4) Stock solutions of the DNDi lead compounds were prepared in 100% DMSO at 20 mM and robotically further diluted in water. Miltefosine (MIL) was included as reference and formulated in water at a concentration of 20 mM. The medium was discarded from the plates to remove any residual non-internalized promastigotes and replaced by fresh RPMI-1640 medium supplemented with iFBS, P/S and L-glutamine (as described above). Next, a 2-fold dilution series of each lead compound was added to the plate with 64 µM as the highest in test-concentration for the DNDi leads and 40 µM for MIL. The 96-well plates were further incubated at 34-37°C and 5% CO2. For staining, the culture medium was discarded, and the plates were left to dry for 2-4 hours. The cells were then fixated with methanol for 10 minutes and stained with a 1/5 Giemsa dilution in water for 15 minutes. The percentage infection-inhibition compared to a positive control (untreated infected macrophages) was microscopically determined and used to calculate the IC50 and IC90 values.

[4] = test system: L. major (MHOM/IL/81/Friedlin); assay: as above; format: cell-based; settings: Macrophage, read-out: IC50 Mean ± SEM
Protocol: as §2, §3, §4

[5] = test system: L. tropica (MHOM/AF/2015/HTD7); assay: as above; format: cell-based; settings: Macrophage, read-out: IC50 Mean ± SEM
Protocol: as §2, §3, §4

[6] = test system: L. infantum (MHOM/FR/96/LEM3323-cl4); assay: as above; format: cell-based; settings: Macrophage, read-out: IC50 Mean ± SEM
Protocol: as §2, §3, §4

[7] = test system: L. guyanensis (MHOM/PE/02/PER 054/0); assay: as above; format: cell-based; settings: Macrophage, read-out: IC50 Mean ± SEM
Protocol: as §2, §3, §4

[8] = test system: L. infantum (LEM3323-cl4 PMM); assay: as above; format: cell-based; settings: Macrophage, read-out: IC50 Mean ± SEM
Protocol: as §2, §3, §4

[9] = test system: L. panamensis (MHOM/PA/71/LS94); assay: as above; format: cell-based; settings: Macrophage, read-out: IC50 Mean ± SEM
Protocol: as §2, §3, §4

[10] = test system: L. donovani (MHOM/NP/03/BPK275/0-cl18); assay: as above; format: cell-based; settings: Macrophage, read-out: IC50 Mean ± SEM
Protocol: as §2, §3, §4

[11] = test system: L. major (MHOM/SA/85/JISH118); assay: as above; format: cell-based; settings: Macrophage, read-out: IC50 Mean ± SEM
Protocol: as §2, §3, §4

[12] = test system: L. infantum (LEM3323-cl4 MIL); assay: as above; format: cell-based; settings: Macrophage, read-out: IC50 Mean ± SEM
Protocol: as §2, §3, §4

[13] = test system: L. donovani (MHOM/ NP/2003/BPK282/0-cl4); assay: as above; format: cell-based; settings: Macrophage, read-out: IC50 Mean ± SEM
Protocol: as §2, §3, §4

[14] = test system: L. infantum (MHOM/ES/2016/LLM-2346); assay: as above; format: cell-based; settings: Macrophage, read-out: IC50 Mean ± SEM
Protocol: as §2, §3, §4

L. infantum = assay: VL hamster model in vivo efficacy (reduction of parasite load vs. control); settings: 5 days
Protocol: The in vivo efficacy of the compounds C1, C3, C4, and miltefosine was evaluated in a VL hamster model infected with L. infantum. The in vivo studies were performed in accordance with the methods described by Van den Kerkhof et al. [IJP: Drugs and Drug Resistance, 2018, 8, Issue 1, 81-86]. Following treatment, the reduction of parasite load vs. control was determined in different body compartments (liver, spleen, and bone marrow) with results presented in Table 4. Table 4. Hamster in vivo efficacy

[15] = test system: L. donovani parasites in infected human macrophages; settings: Peña et al. Sci. Rep. 2015, 5; cited from earlier work
[16] = test system: T. cruzi infected NIH-3T3 murine fibroblasts; settings: Peña et al. Sci. Rep. 2015, 5; cited from earlier work
[17] = Visceral leishmaniasis, L. infantum (MHOM/BR/2007/WC (L3015)), Miltefosine: mean only
[18] = Cutaneous leishmaniasis, L. major (MHOM/IL/81/Friedlin), Miltefosine: mean only
[19] = Cutaneous leishmaniasis, L. tropica (MHOM/AF/2015/HTD7), Miltefosine: mean only
[20] = Visceral leishmaniasis, L. infantum (MHOM/FR/96/LEM3323-cl4), Miltefosine: mean only
[21] = Cutaneous leishmaniasis, L. guyanensis (MHOM/PE/02/PER 054/0), Miltefosine: mean only
[22] = Cutaneous leishmaniasis, L. panamensis (MHOM/PA/71/LS94), Miltefosine: mean only
[23] = Visceral leishmaniasis, L. donovani (MHOM/NP/03/BPK275/0-cl18), Miltefosine: mean only
[24] = Cutaneous leishmaniasis, L. major (MHOM/SA/85/JISH118), Miltefosine: mean only
[25] = Visceral leishmaniasis, L. donovani (MHOM/ NP/2003/BPK282/0-cl4), Miltefosine: mean only
[26] = Visceral leishmaniasis, L. infantum (MHOM/ES/2016/LLM-2346), Miltefosine: mean only

| Compound | IC50 [1] [nM] | IC90 [1] [nM] | IC50 [2] [nM] | IC90 [2] [nM] | IC50 [3, 17] [nM] | IC50 [4, 18] [nM] | IC50 [5, 19] [nM] | IC50 [6, 20] [nM] | IC50 [7, 21] [nM] | IC50 [8] [nM] | IC50 [9, 22] [nM] | IC50 [10, 23] [nM] | IC50 [11, 24] [nM] | IC50 [12] [nM] | IC50 [13, 25] [nM] | IC50 [14, 26] [nM] | % Parasite reduction Bone marrow (L. infantum; 25 mg/kg qd) [%] | % Parasite reduction Liver (L. infantum; 25 mg/kg qd) [%] | % Parasite reduction Spleen (L. infantum; 25 mg/kg qd) [%] | also measured |
| --- | --- | --- | --- | --- | --- | --- | --- | --- | --- | --- | --- | --- | --- | --- | --- | --- | --- | --- | --- | --- |
| COc1cc(C#N)ccc1-c1c(C)[nH]c2nc(N)nc(C)c12 [Compound C1, 4-(2-amino-4,6-dimethyl-7H-pyrrolo[2,3-d]pyrimidin-5-yl)-3-methoxybenzonitrile] | 1390 | 2320 | 870 | 2900 | 440 ± 240 | 500 ± 170 | 1490 ± 240 | 200 ± 80 | 60 ± 30 | 380 ± 70 | 170 ± 110 | 150 ± 20 | 3000 ± 1050 | 350 ± 80 | 100 ± 170 | 690 ± 190 | – | – | – | % Parasite reduction Bone marrow (L. infantum; 25 mg/kg bid): 98.9%; % Parasite reduction Liver (L. infantum; 25 mg/kg bid): 95.9%; % Parasite reduction Spleen (L. infantum; 25 mg/kg bid): 95.2%; % Parasite reduction Bone marrow (L. infantum; 50 mg/kg bid): 97.4%; % Parasite reduction Liver (L. infantum; 50 mg/kg bid): 99.2%; % Parasite reduction Spleen (L. infantum; 50 mg/kg bid): 95.3% |
| Cc1[nH]c2nc(N)nc(C)c2c1-c1ccc(F)c2c1OCO2 [Compound C2, 5-(7-fluoro-1,3-benzodioxol-4-yl)-4,6-dimethyl-7H-pyrrolo[2,3-d]pyrimidin-2-amine] | 140 | 650 | 150 | 330 | – | – | – | – | – | – | – | – | – | – | – | – | – | – | – | – |
| COc1nc(OCC(F)(F)F)cnc1-c1c(C)[nH]c2nc(N)nc(C)c12 [Compound C3, 5-[3-methoxy-5-(2,2,2-trifluoroethoxy)pyrazin-2-yl]-4,6-dimethyl-7H-pyrrolo[2,3-d]pyrimidin-2-amine] | 1570 | 6480 | 1580 | 3480 | 820 ± 330 | 830 ± 340 | 2380 ± 420 | 330 ± 80 | 120 ± 10 | 540 ± 50 | 260 ± 130 | 230 ± 100 | 6640 ± 610 | 400 ± 140 | 320 ± 160 | 690 ± 360 | 86.7 | 98.4 | 99.0 | % Parasite reduction Bone marrow (L. infantum; 12.5 mg/kg qd): 89.9%; % Parasite reduction Liver (L. infantum; 12.5 mg/kg qd): 96.1%; % Parasite reduction Spleen (L. infantum; 12.5 mg/kg qd): 98.4% |
| Cc1[nH]c2nc(N)nc(C)c2c1-c1ccc(C#N)c2c1OCO2 [Compound C4, 7-(2-amino-4,6-dimethyl-7H-pyrrolo[2,3-d]pyrimidin-5-yl)-1,3-benzodioxole-4-carbonitrile] | 160 | 410 | 150 | 370 | – | – | – | – | – | 60 ± 20 | – | – | – | 70 ± 10 | – | – | 99.4 | 99.6 | 99.9 | IC50 [3]: 50 ± 30 nM; IC50 [4]: 80 ± 20 nM; IC50 [5]: 300 ± 90 nM; IC50 [6]: 50 ± 10 nM; IC50 [7]: 10 nM; IC50 [9]: 30 ± 10 nM; IC50 [10]: 40 ± 10 nM; IC50 [11]: 560 ± 260 nM; IC50 [13]: 30 ± 30 nM; IC50 [14]: 170 ± 70 nM; % Parasite reduction Bone marrow (L. infantum; 6.25 mg/kg bid): 93.6%; % Parasite reduction Liver (L. infantum; 6.25 mg/kg bid): 96.9%; % Parasite reduction Spleen (L. infantum; 6.25 mg/kg bid): 97.6%; % Parasite reduction Bone marrow (L. infantum; 12.5 mg/kg bid): 99.6%; % Parasite reduction Liver (L. infantum; 12.5 mg/kg bid): 99.7%; % Parasite reduction Spleen (L. infantum; 12.5 mg/kg bid): 99.9%; % Parasite reduction Bone marrow (L. infantum; 50 mg/kg qd): 99.9%; % Parasite reduction Liver (L. infantum; 50 mg/kg qd): 99.7%; % Parasite reduction Spleen (L. infantum; 50 mg/kg qd): 99.9% |
| COc1ccccc1-c1c(C)[nH]c2nc(N)nc(C)c12 [TCMDC-143610] | – | – | – | – | – | – | – | – | – | – | – | – | – | – | – | – | – | – | – | pIC50 [15]: 4.6; pIC50 [16]: 6.6 |
